# B1: heparinase: enzyme treatment that completely removes syndecan expression (protein, UniProt Q59289 25-659, looked up)
# Heparin-sulfate lyase: QSSSITRKDFDHINLEYSGLEKVNKAVAAGNYDDAAKALLAYYREKSKAREPDFSNAEKPADIRQPIDKVTREMADKALVHQFQPHKGYGYFDYGKDINWQMWPVKDNEVRWQLHRVKWWQAMALVYHATGDEKYAREWVYQYSDWARKNPLGLSQDNDKFVWRPLEVSDRVQSLPPTFSLFVNSPAFTPAFLMEFLNSYHQQADYLSTHYAEQGNHRLFEAQRNLFAGVSFPEFKDSPRWRQTGISVLNTEIKKQVYADGMQFELSPIYHVAAIDIFLKAYGSAKRVNLEKEFPQSYVQTVENMIMALISISLPDYNTPMFGDSWITDKNFRMAQFASWARVFPANQAIKYFATDGKQGKAPNFLSKALSNAGFYTFRSGWDKNATVMVLKASPPGEFHAQPDNGTFELFIKGRNFTPDAGVFVYSGDEAIMKLRNWYRQTRIHSTLTLDNQNMVITKARQNKWETGNNLDVLTYTNPSYPNLDHQRSVLFINKKYFLVIDRAIGEATGNLGVHWQLKEDSNPVFDKTKNRVYTTYRDGNNLMIQSLNADRTSLNEEEGKVSYVYNKELKRPAFVFEKPKKNAGTQNFVSIVYPYDGQKAPEISIRENKGNDFEKGKLNLTLTINGKQQLVLVP
# Legend:
# gp-340 = gp-340 (Homo sapiens, UniProt Q9UGM3); conditions: previously shown/demonstrated; cited from earlier work
# Chain of gp-340 (Q9UGM3 20-2413): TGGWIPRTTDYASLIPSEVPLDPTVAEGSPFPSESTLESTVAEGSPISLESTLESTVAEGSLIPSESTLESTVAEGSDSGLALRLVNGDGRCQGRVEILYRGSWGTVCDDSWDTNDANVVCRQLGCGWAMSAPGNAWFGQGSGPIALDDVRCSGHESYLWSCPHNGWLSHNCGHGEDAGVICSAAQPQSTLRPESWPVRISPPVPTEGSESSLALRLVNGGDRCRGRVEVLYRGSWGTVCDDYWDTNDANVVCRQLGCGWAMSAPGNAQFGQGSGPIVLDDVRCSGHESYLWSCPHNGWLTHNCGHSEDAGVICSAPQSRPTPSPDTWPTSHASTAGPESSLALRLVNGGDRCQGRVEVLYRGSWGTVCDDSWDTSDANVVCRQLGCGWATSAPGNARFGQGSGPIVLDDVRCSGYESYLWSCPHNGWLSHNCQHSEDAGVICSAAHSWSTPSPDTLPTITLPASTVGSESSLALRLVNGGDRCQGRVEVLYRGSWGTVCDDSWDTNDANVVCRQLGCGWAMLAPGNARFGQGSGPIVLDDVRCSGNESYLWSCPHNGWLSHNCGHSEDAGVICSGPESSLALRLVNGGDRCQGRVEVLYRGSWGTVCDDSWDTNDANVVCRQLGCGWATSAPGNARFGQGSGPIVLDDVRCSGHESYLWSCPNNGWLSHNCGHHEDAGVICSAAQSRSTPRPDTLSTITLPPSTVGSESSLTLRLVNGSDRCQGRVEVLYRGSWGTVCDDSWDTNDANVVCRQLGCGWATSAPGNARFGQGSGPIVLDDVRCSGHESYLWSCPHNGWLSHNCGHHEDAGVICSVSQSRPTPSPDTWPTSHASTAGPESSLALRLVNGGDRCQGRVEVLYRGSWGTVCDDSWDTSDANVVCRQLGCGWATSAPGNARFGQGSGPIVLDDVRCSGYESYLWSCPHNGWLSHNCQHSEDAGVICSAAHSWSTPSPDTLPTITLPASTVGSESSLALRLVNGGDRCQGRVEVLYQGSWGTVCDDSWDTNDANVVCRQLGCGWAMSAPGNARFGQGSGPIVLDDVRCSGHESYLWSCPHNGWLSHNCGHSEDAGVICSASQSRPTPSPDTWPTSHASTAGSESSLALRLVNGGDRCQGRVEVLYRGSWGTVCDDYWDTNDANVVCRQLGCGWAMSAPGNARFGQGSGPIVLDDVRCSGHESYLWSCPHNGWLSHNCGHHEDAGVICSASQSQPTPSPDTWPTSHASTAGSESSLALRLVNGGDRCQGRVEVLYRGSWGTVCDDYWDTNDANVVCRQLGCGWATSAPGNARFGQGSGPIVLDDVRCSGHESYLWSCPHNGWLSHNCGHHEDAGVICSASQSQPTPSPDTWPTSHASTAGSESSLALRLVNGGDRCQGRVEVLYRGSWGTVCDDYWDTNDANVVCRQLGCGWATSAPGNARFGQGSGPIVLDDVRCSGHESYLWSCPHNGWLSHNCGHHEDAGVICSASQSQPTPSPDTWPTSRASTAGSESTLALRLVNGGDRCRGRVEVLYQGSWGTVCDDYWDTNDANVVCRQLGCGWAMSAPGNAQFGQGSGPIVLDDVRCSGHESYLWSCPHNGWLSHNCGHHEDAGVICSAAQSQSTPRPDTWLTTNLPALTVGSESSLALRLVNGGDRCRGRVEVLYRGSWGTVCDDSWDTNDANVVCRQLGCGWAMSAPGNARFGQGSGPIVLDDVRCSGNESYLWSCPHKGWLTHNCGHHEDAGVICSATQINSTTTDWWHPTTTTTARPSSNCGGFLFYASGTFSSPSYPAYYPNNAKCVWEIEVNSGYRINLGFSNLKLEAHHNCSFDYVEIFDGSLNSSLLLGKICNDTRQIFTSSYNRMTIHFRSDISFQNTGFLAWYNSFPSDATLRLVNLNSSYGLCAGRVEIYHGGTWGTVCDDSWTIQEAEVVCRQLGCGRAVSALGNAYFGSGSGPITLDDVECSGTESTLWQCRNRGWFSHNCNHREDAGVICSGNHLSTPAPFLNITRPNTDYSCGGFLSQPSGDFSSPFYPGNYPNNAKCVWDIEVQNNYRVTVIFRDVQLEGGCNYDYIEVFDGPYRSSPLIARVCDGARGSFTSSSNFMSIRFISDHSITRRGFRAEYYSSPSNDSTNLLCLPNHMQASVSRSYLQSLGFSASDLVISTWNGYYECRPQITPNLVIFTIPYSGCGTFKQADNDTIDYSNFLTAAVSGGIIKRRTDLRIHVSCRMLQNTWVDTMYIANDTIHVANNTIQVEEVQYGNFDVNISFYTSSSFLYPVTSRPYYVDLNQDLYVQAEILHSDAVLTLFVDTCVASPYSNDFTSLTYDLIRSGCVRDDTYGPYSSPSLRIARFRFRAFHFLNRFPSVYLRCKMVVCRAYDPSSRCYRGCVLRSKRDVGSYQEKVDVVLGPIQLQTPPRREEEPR
# HIV strain BL2 = assay: Trans-infection assay, AGS cells expressing endogenous gp-340 to T cell blasts; assay type: cell-based, HIV-1; conditions: peptide 10 μg/ml, 15 min preincubation, p24 7 days later
# Experimental: FIG. 2 Transmission of HIV by AGS cells expressing endogenous gp-340 is inhibited by peptide corresponding to the V3 domain of Env. AGS cells were preincubated with gp-340-specific peptide 6283 or 6284, and control peptide 6220 (10 μg/ml) for 15 min and then pulsed with decreasing amounts of HIV strain BL2. After viral exposure, the cells were washed four times to remove unbound virus and cocultured with T cell blasts in the absence of peptides for 24 h. The T cell blasts were then moved to new wells and p24 Gag antigen content was measured 7 days later. IUs were calculated using PHA-blasts as target cells in a TCID50 assay. Experiment was performed in replicates of six per virus concentration. Data is expressed as the percentage of the 6 wells in which the cells became infected for each virus concentration.
# (§1) Parental or gp-340 expressing 293 cells, VK2E6E7, Endo1E6E7, Ect1E6E7, or AGS cells or 1 mm^3 pieces of ectocervix obtained as described below seeded in 96 well plates were incubated with various IU inputs of HIV, in 100 μl final volume for 2 h at 37° C. and then extensively washed. Additional inhibitors, peptides or antibodies, were added to cells 30 min prior to pulsing with virus and replaced after cells were washed. Plates were centrifuged at 1250 rpm for 7 minutes between each wash. After viral incubation and washing, PHA-blasts were cocultured with the pulsed cells for 7 days at 37° C. with IL-2. Infection was monitored by measuring supernatant-associated p24 Gag protein content on day 7. TCID50 was calculated using the Reed-Münch formula.
# To examine native expressed gp-340, the gastrointestinal carcinoma cell line AGS, which is expresses gp-340, was analyzed for its ability to transmit HIV in vitro. AGS cells enhanced transmission of HIV to target CD4^+ T cells. Cells were infected in 50% of the wells when 0.08 infectious units (IU) of virus were pulsed per well. This represented a 6-fold enhancement in the viral infectivity by gp-340. Peptides 6283 and 6284, derived from the proposed gp-340 binding site in Env, abolished the enhancement in infectivity. […]
# [1] = test system: HIV (primary M-tropic strain BL2); assay: Trans-infection assay, 293 clone 1D4 stably expressing gp-340 pulsed with HIV, cocultured with PHA-blasts; assay type: cell-based, HIV-1; conditions: for mean P24, transmission by clone 1D4 in presence of peptide: average of 6 wells
# Experimental: FIG. 1. 293 cells stably expressing cell surface gp-340 enhance the transfer of HIV to target cells. (A) 293 cells and a clone, 1D4, stably expressing gp-340, were stained for surface expression of gp-340 using rabbit polyclonal antibody 1527. Isotype control stained cells shown are 293 cells, but the 1D4 clone gave the same pattern. (B) Clone 1D4 and 293 cells were pulsed with increasing IU of HIV BL2 virus with or without a V3-derived peptide 6284 (10 μg/ml) that blocks Env-gp-340 binding, washed and exposed to PHA-blasts for 7 days. IUs were calculated using PHA-blasts as target cells in a TCID50 assay. Experiment was performed in replicates of 6 wells per viral addition and data is expressed as the percentage of the wells that became infected.
# as §1, with “After viral incubation and washing, PHA-blasts were cocultured with the pulsed cells for 7 days at 37° C. with IL-2.” left out
# Secreted gp-340 found at high levels in the oral cavity and also exists in a cell surface-associated form, although mRNA containing exon 55, which encodes the putative transmembrane domain, has not yet been detected. […] The gp-340 expressing cell lines were measured for their ability to transmit cell-free HIV to human PHA- and IL-2-stimulated PBMCs (PHA-blasts). […] Infection was monitored by p24 Gag protein content in the culture supernatant in each well and scored for the presence or absence of infection. The assay used 6 replicates of cells for each viral dilution and condition and calculated the number of wells that became infected at each amount of added virus. […]
# HIV [2] = assay: Direct HIV infection of PHA-blasts with peptide added before HIV; assay type: cell-based, HIV-1; conditions: peptide added to PHA-blasts prior to HIV
# HIV-1 BL2 virus = assay: Trans-infection assay, vaginal epithelial cells (VK2E6E7) to PHA-blasts; assay type: cell-based; conditions: pre-incubation with antibody, or peptide at time of viral pulsing; p24 after 7 days
# Experimental: Vaginal epithelial cells (VK2E6E7) were incubated with isotype control or gp-340-specific antibodies 116 or DAPA and then pulsed with HIV-1 BL2 virus. After extensive washing, PHA-blasts were added for 24 h and then moved to new plates without VK2E6E7 cells. After 7 days, p24 Gag protein content in the supernatant was measured. Samples were run in triplicate and standard error of the mean is given.
# as §1
# Cell lines were pulsed with decreasing amounts of HIV Ba-L, washed and had target cells immediately added or added after 2 or 4 days of culture. […]
# HIV [3] = assay: Trans-infection by genital tract epithelial cell lines; assay type: cell-based; conditions: treatment completely removes syndecan expression
molecule,measurement,setting,value
CTRPNYNKRKRIHIG [peptide 6284],Env binding to gp-340,gp-340,block
same,enhancement in infectivity (transmission of HIV by AGS cells),HIV strain BL2,abolished
same,"mean P24, transmission by clone 1D4 in presence of peptide","[1]; 0.11 IU viral input, without peptide 184",7
same,"mean P24, transmission by clone 1D4 in presence of peptide","[1]; 0.33 IU viral input, without peptide 239",7
same,enhancement of HIV trans-infection (TCID50) by gp-340-expressing cells,"[1]; gp-340-expressing 293 cells pre-incubated with peptide 10 μg/ml, HIV BL2, PHA-blasts 7 days",abolished
same,infection of PHA-blasts,HIV [2],did not affect
DAPA,Env binding to gp-340,gp-340,inhibit
same,ability of VK2E6E7 cells to bind and transmit HIV to PHA-blasts,HIV-1 BL2 virus,markedly decreased
"KEATTTLFCASDAKA (Human) [peptide 6220, control peptide derived from another part of Env, reference compound]",enhancement in infectivity (transmission of HIV by AGS cells),HIV strain BL2,had no impact
VQINCTRPNYNKRKR [peptide 6283],enhancement in infectivity (transmission of HIV by AGS cells),HIV strain BL2,abolished
B1,trans-infection after heparinase treatment,HIV [3],no effect

# Source: patent publication US9580473B2, “Method of inhibiting HIV-1 binding to genital epithelia using V3 loop-specific peptides and GP340-specific antibodies” (priority 2006, dated 2017)
